# “Also recorded” adds a separate entry of the source. Read-outs that look alike come from different tables or passages of the source.
# Key:
# [1] = Thermal Gravimetric Analysis (TGA) weight loss; format: physicochemical; details: heated 10° C./min under dry nitrogen
# Source text: TGA data were collected for each of the forms using a Q500 Thermogravimetric Analyzer (TA Instruments, 109 Lukens Drive, New Castle, Del. 19720), which uses as its control software Advantage for QW-Series, version 1.0.0.78, Thermal Advantage Release 2.0, © 2001 (TA instruments—Waters LLC). An aliquot of the sample was transferred into a platinum sample pan (Pan part # 952019.906; TA Instruments, 109 Lukens Drive, New Castle, Del. 19720). The pan was placed on the loading platform and was then automatically loaded in to the apparatus using the control software. Thermograms were typically obtained by individually heating the sample at 10° C./min from 25° C. to 300° C. under flowing dry nitrogen (compressed nitrogen, grade 4.8, BOC Gases, 575 Mountain Avenue, Murray Hill, N.J. 07974-2082), with a sample purge flow rate of 60 ml/min and a balance purge flow rate of 40 ml/min. Thermal transitions (weight changes) were viewed and analyzed using the analysis software Universal Analysis 2000 for Windows 95/95/2000/NT, version 3.1E; Build 3.1.0.40, © 1991–2001 (TA instruments—Waters LLC), provided with the instrument.
# Using the DSC and TGA data obtained for Ritonavir Forms III, IV, and V, and published data for Forms I and II, the different thermal characteristics of each of the forms of Ritonavir were determined. These characteristics are provided below in Table 1: […]
# [2] = Conversion of solid form on contact with aqueous media; format: physicochemical
# Source text: Ritonavir(IV) can be prepared from Ritonavir(III). In a particular method, Ritonavir(III) is contacted with an aqueous medium for an amount of time sufficient to effect the change. For example, Ritonavir(III) placed on a vacuum filter can be washed with deionized water, thereby providing Ritonavir(IV).
# [3] = Conversion of solid form when left in the crystallization mixture; format: physicochemical
# Method: In particular: (A) is a representative X-ray diffraction pattern of Ritonavir(I); (B) is an X-ray diffraction pattern of a sample of Ritonavir(V) after being left in the crystallization mixture for approximately 16 hours, with arrows indicating peaks that signify the presence of Ritonavir(I); and (C) is a representative X-ray diffraction pattern of Ritonavir(V). […] In particular: (A) provides a DSC trace of Ritonavir(I); (B) provides a DSC trace of a sample of Ritonavir(V) after being left in the crystallization mixture for approximately 16 hours, wherein two peaks are observed corresponding to Forms I and V; and (C) is a representative DSC trace of Ritonavir(V). Ritonavir(V) is readily prepared from solvent systems (e.g., binary solvent systems) comprised of an acetate and acetonitrile. In particular, it was discovered that after Ritonavir is dissolved in such a solvent system at an elevated temperature (e.g., about 70° C.), the slow cooling of the resulting mixtures (e.g., at a rate of about 5° C./minute until a temperature of about 5° C. is reached) typically yields crystals of Ritonavir(V), which can be isolated by filtration and optionally dried by air. Specific solvent systems comprise from about 25 to about 50 volume percent acetonitrile.
# [4] = data for Forms I and II obtained from Chemburkar; cited from earlier work
# [5] = crystalline form, oral; cited from earlier work
compound,measurement,setting,value
"CC(C)c1nc(CN(C)C(=O)N[C@H](C(=O)N[C@@H](Cc2ccccc2)C[C@H](O)[C@H](Cc2ccccc2)NC(=O)OCc2cncs2)C(C)C)cs1 (relative stereo) [Form III, 10-hydroxy-2-methyl-5-(1-methylethyl)-1-[2-(1-methylethyl)-4-thiazolyl]-3,6-dioxo-8,11-bis(phenylmethyl)-2,4,7,12-tetraazatridecan-13-oic acid, 5-thiazolylmethyl ester, [5S-(5R*,8R*,10R*,11R*)]]",TGA % weight loss (up to 130° C.),[1]; listed as III,30—60%
same,"form conversion while washed or incubated in aqueous media (DSC trace, FIG. 17)",[2]; washed or incubated in aqueous media,"conversion of Ritonavir Form III to Form IV, and subsequently to Form I"
"CC(C)c1nc(CN(C)C(=O)N[C@H](C(=O)N[C@@H](Cc2ccccc2)C[C@H](O)[C@H](Cc2ccccc2)NC(=O)OCc2cncs2)C(C)C)cs1 (relative stereo) [Form IV, 10-hydroxy-2-methyl-5-(1-methylethyl)-1-[2-(1-methylethyl)-4-thiazolyl]-3,6-dioxo-8,11-bis(phenylmethyl)-2,4,7,12-tetraazatridecan-13-oic acid, 5-thiazolylmethyl ester, [5S-(5R*,8R*,10R*,11R*)]]",TGA % weight loss (up to 130° C.),[1]; listed as IV,4—9%
same,form conversion on exposure to an aqueous environment,"[2]; aqueous environment, extended time, about 15 to about 60 minutes",converts to Ritonavir Form I
same,form conversion on prolonged exposure to an aqueous environment,[2]; prolonged exposure to aqueous environment,converts the compound to Ritonavir Form II
"CC(C)c1nc(CN(C)C(=O)N[C@H](C(=O)N[C@@H](Cc2ccccc2)C[C@H](O)[C@H](Cc2ccccc2)NC(=O)OCc2cncs2)C(C)C)cs1 (relative stereo) [Form V, 10-hydroxy-2-methyl-5-(1-methylethyl)-1-[2-(1-methylethyl)-4-thiazolyl]-3,6-dioxo-8,11-bis(phenylmethyl)-2,4,7,12-tetraazatridecan-13-oic acid, 5-thiazolylmethyl ester, [5S-(5R*,8R*,10R*,11R*)]]",TGA % weight loss (up to 130° C.),[1]; listed as V,<0.3%
same,"form conversion when left in crystallization mixture (X-ray diffraction, DSC)",[3]; approximately 16 hours at nucleation temperature of 5° C.,formed Ritonavir(I)
same,form conversion on prolonged time in crystallization mixture,"[3]; prolonged period of time (hours to days), listed as Ritonavir(V)",form a mixture of Forms V and I; also recorded: provides Ritonavir Form I
"CC(C)c1nc(CN(C)C(=O)N[C@H](C(=O)N[C@@H](Cc2ccccc2)C[C@H](O)[C@H](Cc2ccccc2)NC(=O)OCc2cncs2)C(C)C)cs1 (single isomer, unassigned) [Form I, 10-hydroxy-2-methyl-5-(1-methylethyl)-1-[2-(1-methylethyl)-4-thiazolyl]-3,6-dioxo-8,11-bis(phenylmethyl)-2,4,7,12-tetraazatridecan-13-oic acid, 5-thiazolylmethyl ester, [5S-(5R*,8R*,10R*,11R*)]]",TGA % weight loss (up to 130° C.),[4],<0.3%
same,bioavailability,[5],not bioavailable; also recorded: poor bioavailability
"CC(C)c1nc(CN(C)C(=O)N[C@H](C(=O)N[C@@H](Cc2ccccc2)C[C@H](O)[C@H](Cc2ccccc2)NC(=O)OCc2cncs2)C(C)C)cs1 (single isomer, unassigned) [Form II, 10-hydroxy-2-methyl-5-(1-methylethyl)-1-[2-(1-methylethyl)-4-thiazolyl]-3,6-dioxo-8,11-bis(phenylmethyl)-2,4,7,12-tetraazatridecan-13-oic acid, 5-thiazolylmethyl ester, [5S-(5R*,8R*,10R*,11R*)]]",TGA % weight loss (up to 130° C.),[4],<0.3%
same,bioavailability,[5],poor bioavailability
